Data from PMC9049938 (2020).

Columns and labels:
Experiment in all cases: BLI
[1] = test system: N59a (DNA, aptamer) CCACCAGGCCAAACACGACCCCAAACA; settings: 150 mM NaCl, 2 mM MgCl2, 50 mM Tris-HCl pH 7.5
[2] = test system: N16 (DNA, aptamer) GAGGCAGCACTTCACACGATATTTGGGGATCAGCCAGGTCAGTGCCACTGCGTAATGACTGTAGTGATG; settings: 150 mM NaCl, 2 mM MgCl2; 50 mM Tris-HCl pH 7.5
[3] = test system: N41 (DNA, aptamer) GAGGCAGCACTTCACACGATCCCCCCCACACTCTTCCAACCCCCTCTCTGCGTAATGACTGTAGTGATG; settings: 150 mM NaCl, 2 mM MgCl2; 50 mM Tris-HCl pH 7.5
[4] = test system: N50 (DNA, aptamer) GAGGCAGCACTTCACACGATCGTCCCTGCCCCTGCCTCCTTTCTATGCTGCGTAATGACTGTAGTGATG; settings: 150 mM NaCl, 2 mM MgCl2; 50 mM Tris-HCl pH 7.5
[5] = test system: N59 (DNA, aptamer) GAGGCAGCACTTCACACGATCCACCAGGCCAAACACGACCCCAAACACTGCGTAATGACTGTAGTGATG; settings: 150 mM NaCl, 2 mM MgCl2; 50 mM Tris-HCl pH 7.5
[6] = test system: N11 (DNA, aptamer) GAGGCAGCACTTCACACGATCGGACCCAAACTTTACCTTACCCCCATCTGCGTAATGACTGTAGTGATG; settings: 150 mM NaCl, 2 mM MgCl2; 50 mM Tris-HCl pH 7.5

| KD [1] [µM] | KD [2] [µM] | KD [3] [µM] | KD [4] [µM] | KD [5] [µM] | KD ([1]; Table S3 prints 64 nM) [µM] | KD [6] [µM] | SMILES |
| --- | --- | --- | --- | --- | --- | --- | --- |
| 30.5 | – | – | – | – | – | – | C=C1[C@@H](O)[C@@H]2O[C@]3(CC[C@H](/C=C/[C@@H](C)[C@@H]4CC(C)=C[C@@]5(O[C@H](C[C@@](C)(O)C(=O)O)CC[C@H]5O)O4)O3)CC[C@H]2O[C@@H]1[C@@H](O)C[C@H](C)[C@H]1O[C@@]2(CCCCO2)CC[C@H]1C |
| – | 0.729 | 1890 | 2.57 | 0.17 | 0.064 | 0.498 | C=C1[C@@H](O)[C@@H]2O[C@]3(CC[C@H](/C=C/[C@@H](C)[C@@H]4CC(C)=C[C@@]5(O[C@H](C[C@@](C)(O)C(=O)O)CC[C@H]5O)O4)O3)CC[C@H]2O[C@@H]1[C@@H](O)C[C@H](C)[C@H]1O[C@@]2(CC[C@H]1C)OCCC[C@H]2C |
